ChEMBL document CHEMBL1201862, “PubChem BioAssay data set” (2004)
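Step 1: Grow cells in 96-well plates. Step 2: Expose to compound for 48 hours at 5 concentrations. Step 3: Interpolate endpoints linearly; if unreached, use highest concentration. At the GI50, growth is halved.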 The source made the active and inactive calls. Cut-off read from the data, not from the text of the source: active = GI50 up to about 1.1 µM and inactive = higher.

How the values were obtained:
Assay in all cases: inhibition of tumour cell growth, NCI panel, 48 h
[1] = system: TK-10
[2] = system: BT-549
[3] = system: LOX IMVI
[4] = system: A549
[5] = system: NCI-H522
[6] = system: SF-539
[7] = system: SR
[8] = system: HCT-116
[9] = system: UACC-62
[10] = system: Hs-578T
[11] = system: HOP-92
[12] = system: EKVX
[13] = system: HCT-15
[14] = system: SNB-75
[15] = system: A498
[16] = system: OVCAR-4
[17] = system: T47D
[18] = system: SK-MEL-5
[19] = system: PC-3
[20] = system: UACC-257
[21] = system: SW-620
[22] = system: KM12
[23] = system: CAKI-1
[24] = system: HOP-62
[25] = system: COLO 205
[26] = system: SK-MEL-28
[27] = system: SF-268
[28] = system: DU-145
[29] = system: SK-OV-3
[30] = system: NCI-H23
[31] = system: MOLT-4
[32] = system: OVCAR-3
[33] = system: MDA-N
[34] = system: Malme-3M
[35] = system: U-251
[36] = system: SN12C
[37] = system: HL-60
[38] = system: RPMI-8226
[39] = system: IGROV-1
[40] = system: RXF 393
[41] = system: HT-29
[42] = system: MCF7
[43] = system: ACHN
[44] = system: MDA-MB-435
[45] = system: OVCAR-8
[46] = system: HCC 2998
[47] = system: K562
[48] = system: M14
[49] = system: 786-0
[50] = system: SK-MEL-2
[51] = system: CCRF-CEM
[52] = system: MDA-MB-231
[53] = system: NCI-H226
[54] = system: SNB-19
[55] = system: UO-31
[56] = system: NCI/ADR-RES
[57] = system: OVCAR-5
[58] = system: SF-295
[59] = system: NCI-H460

Measured: GI50

Cc1cccc2c(N)c3cccc(C(=O)NCC[N+](C)(C)Cc4c([N+](=O)[O-])ncn4C)c3nc12
27 µM: [13]
inactive: [1] 56.2 µM | [2] 46.1 µM | [3] 11.4 µM | [4] 3.78 µM | [5] 12.4 µM | [6] 11.5 µM | [7] 23 µM | [8] 26.4 µM | [9] 33.7 µM | [10] 31.2 µM | [11] 40.6 µM | [12] > 66.1 µM | [14] 27.4 µM | [15] 47.6 µM | [16] > 48.2 µM | [17] 67.8 µM | [18] 26.1 µM | [19] 36.6 µM | [20] 49.9 µM | [21] 18.9 µM | [22] 29 µM | [23] 2.69 µM | [24] 10.4 µM | [25] 24.3 µM | [26] > 100 µM | [27] 28.2 µM | [28] 46.8 µM | [29] 31.6 µM | [30] 17.5 µM | [31] 3.05 µM | [32] 41.8 µM | [33] 47.1 µM | [34] > 43.6 µM | [35] 29.9 µM | [36] 6.93 µM | [37] 5.92 µM | [38] 31.4 µM | [39] 27.3 µM | [40] 48 µM | [41] 12.7 µM | [42] 12.8 µM | [43] 10.8 µM | [44] 52.6 µM | [45] 26.3 µM | [46] 6.73 µM | [47] 11.1 µM | [48] 52.4 µM | [49] 6.5 µM | [50] > 80.5 µM | [51] 18.9 µM | [52] 38.5 µM | [53] 29.2 µM | [54] 25.8 µM | [55] 16.6 µM | [56] > 49.9 µM | [57] 23.6 µM | [58] 25.4 µM

CCOC(=O)c1nc2ccccc2nc1NCc1cc(OC)c(OC)c(OC)c1
inactive: [1] > 100 µM | [2] 34.8 µM | [3] 47 µM | [4] 37.8 µM | [5] 33 µM | [6] > 100 µM | [7] 37.8 µM | [8] 36.1 µM | [9] 36.8 µM | [10] 42.9 µM | [11] 34.3 µM | [12] 51.1 µM | [14] 89.5 µM | [15] 23.9 µM | [16] 29.6 µM | [17] 35.5 µM | [18] 26.9 µM | [19] 25.2 µM | [20] 75 µM | [21] 42.2 µM | [22] 34.4 µM | [23] 70.6 µM | [24] 55.1 µM | [25] 38.2 µM | [26] 58.3 µM | [27] > 100 µM | [28] > 100 µM | [29] 80.5 µM | [30] > 100 µM | [31] 27.2 µM | [32] 75.5 µM | [33] 14.8 µM | [34] 29.6 µM | [35] 42.1 µM | [36] 27.4 µM | [59] 28.8 µM | [37] 33.3 µM | [38] 25.2 µM | [39] 53.1 µM | [40] 14.9 µM | [41] 40.5 µM | [42] 35.6 µM | [43] 43.6 µM | [44] 20.3 µM | [45] 58.1 µM | [46] 53.7 µM | [47] 27.8 µM | [49] 72.9 µM | [51] 39.9 µM | [52] 27.4 µM | [53] 83 µM | [55] 24.6 µM | [56] 15.1 µM | [57] > 100 µM | [58] 54.1 µM
30.3 µM: [13]
